Source: ChEMBL document CHEMBL5360558, “Molecular design, synthesis and anticancer activity of new thiopyrano[2,3-d]thiazoles based on 5-hydroxy-1,4-naphthoquinone (juglone)” (Eur J Med Chem, 2023)

How the values were obtained:
BT-549 = experiment: Anticancer activity against human BT-549 cells assessed as cell growth at 10 uM incubated for 48 hrs by sulforhodamine B assay; type: functional; settings: read-out: Activity
OVCAR-3 = experiment: Growth inhibition against human OVCAR-3 cells assessed as lethal concentration incubated for 48 hrs by sulforhodamine B spectrophotometric assay; type: functional; settings: read-out: LC50 (the source's name)
Malme-3M = experiment: Growth inhibition against human Malme-3M cells assessed as total growth inhibitory concentration incubated for 48 hrs by sulforhodamine B spectrophotometric assay; type: functional
M14 [1] = experiment: Growth inhibition against human M14 cells assessed as total growth inhibitory concentration incubated for 48 hrs by sulforhodamine B spectrophotometric assay; type: functional
KM12 = experiment: Growth inhibition of human KM12 cells incubated for 48 hrs by sulforhodamine B spectrophotometric assay; type: functional
HCT-116 = experiment: Growth inhibition of human HCT-116 cells incubated for 48 hrs by sulforhodamine B spectrophotometric assay; type: functional
NCI-H460 = experiment: Growth inhibition against human NCI-H460 cells assessed as total growth inhibitory concentration incubated for 48 hrs by sulforhodamine B spectrophotometric assay; type: functional
EKVX = experiment: Growth inhibition against human EKVX cells assessed as lethal concentration incubated for 48 hrs by sulforhodamine B spectrophotometric assay; type: functional; settings: read-out: LC50 (the source's name)
SF-295 = experiment: Growth inhibition against human SF-295 cells assessed as total growth inhibitory concentration incubated for 48 hrs by sulforhodamine B spectrophotometric assay; type: functional
ACHN = experiment: Growth inhibition against human ACHN cells assessed as lethal concentration incubated for 48 hrs by sulforhodamine B spectrophotometric assay; type: functional; settings: read-out: LC50 (the source's name)
RPMI-8226 [2] = experiment: Growth inhibition against human RPMI-8226 cells assessed as total growth inhibitory concentration incubated for 48 hrs by sulforhodamine B spectrophotometric assay; type: functional
MDA-MB-435 = experiment: Growth inhibition of human MDA-MB-435 cells incubated for 48 hrs by sulforhodamine B spectrophotometric assay; type: functional
K562 = experiment: Growth inhibition of human K562 cells incubated for 48 hrs by sulforhodamine B spectrophotometric assay; type: functional
HCT-15 [3] = experiment: Growth inhibition against human HCT-15 cells assessed as lethal concentration incubated for 48 hrs by sulforhodamine B spectrophotometric assay; type: functional; settings: read-out: LC50 (the source's name)
NCI-H322M [4] = experiment: Growth inhibition of human NCI-H322M cells incubated for 48 hrs by sulforhodamine B spectrophotometric assay; type: functional
MDA-MB-231 [5] = experiment: Growth inhibition of human MDA-MB-231 cells incubated for 48 hrs by sulforhodamine B spectrophotometric assay; type: functional
UACC-257 [6] = experiment: Growth inhibition against human UACC-257 cells assessed as lethal concentration incubated for 48 hrs by sulforhodamine B spectrophotometric assay; type: functional; settings: read-out: LC50 (the source's name)
DU-145 = experiment: Growth inhibition against human DU-145 cells assessed as lethal concentration incubated for 48 hrs by sulforhodamine B spectrophotometric assay; type: functional; settings: read-out: LC50 (the source's name)
MDA-MB-231 [7] = experiment: Induction of apoptosis in human MDA-MB-231 cells at 10 uM incubated for 24 hrs by Annexin-V-FITC/propidium iodide staining based flow cytometry analysis (reference value: 8.9%); type: functional
MDA-MB-468 [8] = experiment: Growth inhibition against human MDA-MB-468 cells assessed as total growth inhibitory concentration incubated for 48 hrs by sulforhodamine B spectrophotometric assay; type: functional
IGROV-1 = experiment: Growth inhibition against human IGROV-1 cells assessed as lethal concentration incubated for 48 hrs by sulforhodamine B spectrophotometric assay; type: functional; settings: read-out: LC50 (the source's name)
[9] = Cytotoxicity against human Lymphocyte cells assessed as cell growth inhibition incubated for 72 hrs by MTT assay; type: toxicity, cell-based; settings: lymphocytes
CCRF-CEM [10] = experiment: Induction of cell cycle arrest in human CCRF-CEM cells assessed as accumulation of cells at sub-G1 phase at 20.7 uM incubated for 24 hrs by propidium iodide staining based flow cytometry analysis (reference value: 2.36 +/- 0.049%); type: functional
MOLT-4 [11] = experiment: Growth inhibition against human MOLT-4 cells assessed as total growth inhibitory concentration incubated for 48 hrs by sulforhodamine B spectrophotometric assay; type: functional
MDA-MB-231 [12] = experiment: Growth inhibition against human MDA-MB-231 cells assessed as lethal concentration incubated for 48 hrs by sulforhodamine B spectrophotometric assay; type: functional; settings: read-out: LC50 (the source's name)
HCT-15 [13] = experiment: Growth inhibition against human HCT-15 cells assessed as total growth inhibitory concentration incubated for 48 hrs by sulforhodamine B spectrophotometric assay; type: functional
A498 = experiment: Growth inhibition against human A498 cells assessed as lethal concentration incubated for 48 hrs by sulforhodamine B spectrophotometric assay; type: functional; settings: read-out: LC50 (the source's name)
NCI-H226 = experiment: Growth inhibition against human NCI-H226 cells assessed as lethal concentration incubated for 48 hrs by sulforhodamine B spectrophotometric assay; type: functional; settings: read-out: LC50 (the source's name)
LOX IMVI = experiment: Growth inhibition of human LOX IMVI cells incubated for 48 hrs by sulforhodamine B spectrophotometric assay; type: functional
MOLT-4 [14] = experiment: Growth inhibition against human MOLT-4 cells assessed as lethal concentration incubated for 48 hrs by sulforhodamine B spectrophotometric assay; type: functional; settings: read-out: LC50 (the source's name)
UACC-257 [15] = experiment: Growth inhibition of human UACC-257 cells incubated for 48 hrs by sulforhodamine B spectrophotometric assay; type: functional
MDA-MB-468 [16] = experiment: Growth inhibition of human MDA-MB-468 cells incubated for 48 hrs by sulforhodamine B spectrophotometric assay; type: functional
M14 [17] = experiment: Growth inhibition of human M14 cells incubated for 48 hrs by sulforhodamine B spectrophotometric assay; type: functional
SR = experiment: Growth inhibition of human SR cells incubated for 48 hrs by sulforhodamine B spectrophotometric assay; type: functional
SW-620 = experiment: Growth inhibition against human SW620 cells assessed as lethal concentration incubated for 48 hrs by sulforhodamine B spectrophotometric assay; type: functional; settings: read-out: LC50 (the source's name)
CCRF-CEM [18] = experiment: Induction of cell cycle arrest in human CCRF-CEM cells assessed as accumulation of cells at S phase at 4.14 uM incubated for 24 hrs by propidium iodide staining based flow cytometry analysis (reference value: 41.09 +/- 0.5%); type: functional
SK-MEL-2 = experiment: Growth inhibition of human SK-MEL-2 cells incubated for 48 hrs by sulforhodamine B spectrophotometric assay; type: functional
SK-MEL-5 = experiment: Growth inhibition against human SK-MEL-5 cells assessed as lethal concentration incubated for 48 hrs by sulforhodamine B spectrophotometric assay; type: functional; settings: read-out: LC50 (the source's name)
M14 [19] = experiment: Growth inhibition against human M14 cells assessed as lethal concentration incubated for 48 hrs by sulforhodamine B spectrophotometric assay; type: functional; settings: read-out: LC50 (the source's name)
MOLT-4 [20] = experiment: Growth inhibition of human MOLT-4 cells incubated for 48 hrs by sulforhodamine B spectrophotometric assay; type: functional
COLO 205 = experiment: Growth inhibition against human COLO 205 cells assessed as lethal concentration incubated for 48 hrs by sulforhodamine B spectrophotometric assay; type: functional; settings: read-out: LC50 (the source's name)
RPMI-8226 [21] = experiment: Growth inhibition against human RPMI-8226 cells assessed as lethal concentration incubated for 48 hrs by sulforhodamine B spectrophotometric assay; type: functional; settings: read-out: LC50 (the source's name)
NCI-H322M [22] = experiment: Growth inhibition against human NCI-H322M cells assessed as total growth inhibitory concentration incubated for 48 hrs by sulforhodamine B spectrophotometric assay; type: functional
RXF 393 = experiment: Growth inhibition against human RXF 393 cells assessed as lethal concentration incubated for 48 hrs by sulforhodamine B spectrophotometric assay; type: functional; settings: read-out: LC50 (the source's name)
CCRF-CEM [23] = experiment: Induction of cell cycle arrest in human CCRF-CEM cells assessed as accumulation of cells at higher G2/M phase at 20.7 uM incubated for 24 hrs by propidium iodide staining based flow cytometry analysis (reference value: 10.09 +/- 0.14%); type: functional

O=C1C2=C(C(=O)c3c(O)cccc31)C(c1ccco1)c1sc(=O)[nH]c1S2 (stereo not given)
growth at 10 µM (BT-549): -96.8%
CC50 (OVCAR-3): > 100 µM
TGI (Malme-3M): 2 µM
TGI (M14 [1]): 2.37 µM
GI50 (KM12): 3.71 µM
GI50 (HCT-116): 2.37 µM
TGI (NCI-H460): 3.48 µM
CC50 (EKVX): 44.3 µM
TGI (SF-295): 3.59 µM
CC50 (ACHN): 40.1 µM
TGI (RPMI-8226 [2]): 9.83 µM
GI50 (MDA-MB-435): 1.16 µM
GI50 (K562): 2.84 µM
CC50 (HCT-15 [3]): 8.59 µM
GI50 (NCI-H322M [4]): 1.71 µM
GI50 (MDA-MB-231 [5]): 2.73 µM
CC50 (UACC-257 [6]): 6.75 µM
CC50 (DU-145): 5.81 µM
Activity (MDA-MB-231 [7]): 28.2%
TGI (MDA-MB-468 [8]): 6.59 µM
CC50 (IGROV-1): 38 µM
IC50 at 72 h [9]: > 50 µM
Activity (CCRF-CEM [10]): 5.8%
TGI (MOLT-4 [11]): 9.88 µM
CC50 (MDA-MB-231 [12]): > 100 µM
TGI (HCT-15 [13]): 3.88 µM
CC50 (A498): 31.6 µM
CC50 (NCI-H226): 27.3 µM
GI50 (LOX IMVI): 2.21 µM
CC50 (MOLT-4 [14]): > 100 µM
GI50 (UACC-257 [15]): 1.57 µM
GI50 (MDA-MB-468 [16]): 2.01 µM
GI50 (M14 [17]): 1.06 µM
GI50 (SR): 3.05 µM
CC50 (SW-620): 52.7 µM
Activity (CCRF-CEM [18]): 41.83%
GI50 (SK-MEL-2): 3.51 µM
CC50 (SK-MEL-5): 5.68 µM
CC50 (M14 [19]): 5.26 µM
GI50 (MOLT-4 [20]): 2.71 µM
CC50 (COLO 205): 6.93 µM
CC50 (RPMI-8226 [21]): > 100 µM
TGI (NCI-H322M [22]): 3.13 µM
CC50 (RXF 393): 20.1 µM
Activity (CCRF-CEM [23]): 20.54%
